Measured values: US20060014949A1 (SuperGen Inc., priority 2004, published 2006)
In brackets after ≈: the same amount, converted by molar mass.

Tests used:
Format in all cases: physicochemical
[1] = Solid-state stress (compression, heating, grinding, storage) with XRPD form check
Experimental: X-ray powder diffraction analyses were carried out on a Shimadzu XRD-6000 X-ray powder diffractometer using Cu Kα radiation having a wavelength of 1.5406 Å. The instrument is equipped with a fine-focus X-ray tube. The tube power was set by setting potential difference at 40 kV, and current 40 mA. The divergence and scattering slits were set at 1° and the receiving slit was set at 0.15 mm. Diffracted radiation was detected by a NaI scintillation detector. A theta-two theta continuous scan at 3°/min (0.4 sec/0.02° step) from 2.5 to 40 °2θ was performed. A silicon standard was analyzed each day to check the instrument alignment. Each sample was analyzed in a quartz sample holder. A variable temperature (VT-XRPD) experiment was performed on one form. The sample was prepared for analysis by pressing it into a variable temperature holder.

[2] = Approximate solubility by solvent aliquot addition, visual inspection; details: thermodynamic from solid
Experimental: Solvents were either reagent or HPLC grade. The aliquots were typically either 100 μL or 1 mL. Between additions, the mixture was typically shaken or sonicated. Whether the solids dissolved was judged by visual inspection. Solubilities were estimated from these experiments based on the total solvent used to provide complete dissolution.
Solubilities were estimated from these experiments based on the total solvent used to give a solution. Duplicate runs were averaged.

[3] = Thermogravimetric analysis (TGA)
Experimental: Thermogravimetric analysis (TGA) was carried out on TA Instruments TGA 2050 or 2950. The calibration standards were nickel and Alumel™. Samples were placed on a clean, aluminum sample pan, accurately weighed, and inserted into the TGA furnace. The samples were heated in nitrogen at a rate of 10° C./min, from 35° C. to a final temperature of 250° C.

[4] = Moisture sorption/desorption analysis (VTI SGA-100); details: for solid form after moisture sorption/desorption analysis: after sorption/desorption cycle
Experimental: Moisture sorption/desorption data were collected on a VTI SGA-100 Vapor Sorption Analyzer. Sorption and desorption data were collected over a range of 5 to 95% relative humidity (RH) at 10% RH increments under a nitrogen purge. Sodium chloride (NaCl) and polyvinylpyrrolidone (PVP) were used as the calibration standards. Equilibrium criteria used for analysis were less than 0.0100% weight change in 5 minutes, with a maximum equilibration time of 180 minutes if the weight criterion was not met. Data collected were not corrected for the initial moisture content of the samples.

[5] = Relative humidity stress experiments, XRPD after storage over saturated salt solutions
Experimental: In relative humidity (RH) stress analysis, open vials containing solid samples were placed inside chambers containing saturated salt solutions along with a small amount of the undissolved salt. The chambers were sealed and allowed to stand at ambient temperature for several days. Samples were analyzed by X-ray powder diffraction (XRPD) immediately after removing the sample from the RH chamber. The RH values these salt solutions were obtained from an ASTM standard.

Nc1ncn([C@H]2C[C@H](O)[C@@H](CO)O2)c(=O)n1 [Decitabine, 5-aza-2′-deoxycytidine]
XRPD Pattern ([1]; no solvent, Hydraulic Press 10,000 lbs ~3 min): A + 1 peak | solubility ([2]; 1,1,1,3,3,3-hexafluoro-2-propanol, organic solvent or mixture, solvent 1,1,1,3,3,3-Hexafluoro-2-propanol): ~18000 µg/mL (≈ 78.9 mM) | solubility ([2]; 1,1,1-trichloroethane, organic solvent or mixture, solvent 1,1,1-Trichloroethane): < 1000 µg/mL | solubility ([2]; 1,4-dioxane, organic solvent or mixture, solvent 1,4-Dioxane): < 2000 µg/mL | solubility ([2]; 2-butanone, organic solvent or mixture, solvent 2-Butanone): < 1000 µg/mL | solubility ([2]; 2-propanol, organic solvent or mixture, solvent 2-Propanol): < 1000 µg/mL | solubility ([2]; acetone, organic solvent or mixture, solvent Acetone): < 1000 µg/mL | solubility ([2]; acetonitrile, organic solvent or mixture, solvent Acetonitrile): < 1000 µg/mL | solubility ([2]; chloroform, organic solvent or mixture, solvent Chloroform): < 1000 µg/mL | solubility ([2]; dichloromethane, organic solvent or mixture, solvent Dichloromethane): < 1000 µg/mL | solubility ([2]; dichloromethane:ethanol (1:1), organic solvent or mixture, solvent Dichloromethane:Ethanol (1:1)): < 1000 µg/mL | solubility ([2]; dichloromethane:methanol (1:1), organic solvent or mixture, solvent Dichloromethane:Methanol (1:1)): > 1000 µg/mL | solubility ([2]; diethylamine, organic solvent or mixture, solvent Diethylamine): < 1000 µg/mL | solubility ([2]; ethyl acetate, organic solvent or mixture, solvent Ethyl Acetate): < 1000 µg/mL | solubility ([2]; ethyl ether, organic solvent or mixture, solvent Ethyl Ether): < 1000 µg/mL | solubility ([2]; hexanes, organic solvent or mixture, solvent Hexanes): < 1000 µg/mL | solubility ([2]; methanol:2,2,2-trifluoroethanol (1:1), organic solvent or mixture, solvent Methanol:2,2,2-Trifluoroethanol (1:1)): > 1000 µg/mL | solubility ([2]; methanol:water (1:1), aqueous with cosolvent or surfactant or cyclodextrin, solvent Methanol:Water (1:1)): 4000 µg/mL (≈ 17.5 mM) | solubility ([2]; methyl sulfide, organic solvent or mixture, solvent Methyl Sulfide): < 1000 µg/mL | solubility ([2]; methyl sulfoxide, organic solvent or mixture, solvent Methyl Sulfoxide): ~37000 µg/mL (≈ 162 mM) | solubility ([2]; nitromethane, organic solvent or mixture, solvent Nitromethane): < 1000 µg/mL | solubility ([2]; tetrahydrofuran, organic solvent or mixture, solvent Tetrahydrofuran): < 1000 µg/mL | solubility ([2]; toluene, organic solvent or mixture, solvent Toluene): < 1000 µg/mL | solubility ([2]; water, solvent Water): ~8000 µg/mL (≈ 35.1 mM)

Nc1ncn([C@H]2C[C@H](O)[C@@H](CO)O2)c(=O)n1.O [Form B]
XRPD Pattern ([1]; Post TGA @ 150° C. 10 min (dry nitrogen)): converts to form A | form change in VT-XRPD experiment ([1]; heated in the presence of air): converted to a mixture of forms B and C | form change on storage ([1]; vacuum oven at room temperature for 6 days): converts to form C | TGA Results: percent weight change from 25 to 150° C. ([3]; listed as B): 7.212% | TGA Results: percent weight change from 25 to 150° C. ([3]; listed as form B): 7.2% | water regained at 95% RH ([4]; 95% RH): 0.09% | Weight % chg ([4]; Table 5, desorption, RH 4.98 %, 25.07 deg C, 854.2 min): −2.2984% | Weight % chg ([4]; Table 5, desorption, RH 15.05 %, 25.07 deg C, 672.3 min): 0.0005% | Weight % chg ([4]; Table 5, desorption, RH 25.12 %, 25.06 deg C, 665.2 min): 0.0098% | Weight % chg ([4]; Table 5, desorption, RH 35.00 %, 25.07 deg C, 658.2 min): 0.0184% | Weight % chg ([4]; Table 5, desorption, RH 45.01 %, 25.06 deg C, 650.7 min): 0.0274% | Weight % chg ([4]; Table 5, desorption, RH 55.06 %, 25.06 deg C, 643.2 min): 0.0357% | Weight % chg ([4]; Table 5, desorption, RH 65.04 %, 25.07 deg C, 635.7 min): 0.0439% | Weight % chg ([4]; Table 5, desorption, RH 75.10 %, 25.06 deg C, 627.7 min): 0.0553% | Weight % chg ([4]; Table 5, desorption, RH 85.33 %, 25.07 deg C, 619.7 min): 0.0688% | Weight % chg ([4]; Table 5, sorption, RH 4.98 %, 25.06 deg C, 185.1 min): −2.3894% | Weight % chg ([4]; Table 5, sorption, RH 15.24 %, 25.07 deg C, 193.2 min): −2.4118% | Weight % chg ([4]; Table 5, sorption, RH 24.84 %, 25.07 deg C, 242.2 min): −2.2223% | Weight % chg ([4]; Table 5, sorption, RH 35.00 %, 25.06 deg C, 384.9 min): −1.2517% | Weight % chg ([4]; Table 5, sorption, RH 44.84 %, 25.06 deg C, 499.6 min): −0.5520% | Weight % chg ([4]; Table 5, sorption, RH 54.81 %, 25.07 deg C, 556.5 min): −0.1535% | Weight % chg ([4]; Table 5, sorption, RH 65.01 %, 25.07 deg C, 579.8 min): −0.0371% | Weight % chg ([4]; Table 5, sorption, RH 74.89 %, 25.08 deg C, 592.3 min): 0.0119% | Weight % chg ([4]; Table 5, sorption, RH 84.81 %, 25.08 deg C, 601.5 min): 0.0426% | Weight % chg ([4]; Table 5, sorption, RH 94.59 %, 25.09 deg C, 613.0 min): 0.0851% | Weight % chg ([4]; Table 5, start, RH 2.15 %, 25.08 deg C, 0.0 min): 0.0000% | Weight % chg ([4]; Table 7, desorption, RH 4.96 %, 25.03 deg C, 887.7 min): −1.6786% | Weight % chg ([4]; Table 7, desorption, RH 14.79 %, 25.03 deg C, 771.0 min): 6.1361% | Weight % chg ([4]; Table 7, desorption, RH 24.87 %, 25.03 deg C, 758.6 min): 6.2283% | Weight % chg ([4]; Table 7, desorption, RH 35.04 %, 25.03 deg C, 749.3 min): 6.3408% | Weight % chg ([4]; Table 7, desorption, RH 45.13 %, 25.02 deg C, 739.6 min): 6.4585% | Weight % chg ([4]; Table 7, desorption, RH 54.99 %, 25.02 deg C, 725.7 min): 6.6172% | Weight % chg ([4]; Table 7, desorption, RH 65.12 %, 25.03 deg C, 711.7 min): 6.8321% | Weight % chg ([4]; Table 7, desorption, RH 75.27 %, 25.03 deg C, 697.2 min): 7.1750% | Weight % chg ([4]; Table 7, desorption, RH 85.18 %, 25.03 deg C, 673.5 min): 7.9222% | Weight % chg ([4]; Table 7, sorption, RH 4.95 %, 25.07 deg C, 47.5 min): −1.4176% | Weight % chg ([4]; Table 7, sorption, RH 14.98 %, 25.08 deg C, 60.6 min): −1.3613% | Weight % chg ([4]; Table 7, sorption, RH 24.93 %, 25.08 deg C, 73.7 min): −1.2692% | Weight % chg ([4]; Table 7, sorption, RH 35.04 %, 25.08 deg C, 94.3 min): −0.8649% | Weight % chg ([4]; Table 7, sorption, RH 44.87 %, 25.08 deg C, 116.7 min): −0.4555% | Weight % chg ([4]; Table 7, sorption, RH 55.02 %, 25.05 deg C, 298.7 min): 3.5457% | Weight % chg ([4]; Table 7, sorption, RH 65.01 %, 25.05 deg C, 385.9 min): 6.2129% | Weight % chg ([4]; Table 7, sorption, RH 74.94 %, 25.05 deg C, 413.2 min): 6.6223% | Weight % chg ([4]; Table 7, sorption, RH 85.01 %, 25.05 deg C, 456.7 min): 7.2160% | Weight % chg ([4]; Table 7, sorption, RH 95.15 %, 25.03 deg C, 640.2 min): 11.2538% | Weight % chg ([4]; Table 7, start, RH 2.94 %, 25.07 deg C, 0.0 min): 0.0000% | solid form after moisture sorption/desorption analysis [4]: a mixture of forms B and form C | weight (water) lost upon equilibration to 5% RH [4]: ~2.4% | RH at which the moisture lost at 5% RH is regained ([4]; sorption cycle): about 44 % RH

Nc1ncn([C@H]2C[C@H](O)[C@@H](CO)O2)c(=O)n1 [Form C]
TGA Results: percent weight change from 25 to 150° C. ([3]; listed as C): 1.2% | TGA Results: percent weight change from 25 to 150° C. ([3]; listed as form C): approximately 1.2% | TGA weight loss at about 150° C. ([3]; sample prepared by vacuum evaporation of a solution in water (sample no. 1029-65-05)): ~7.2% | TGA weight loss at about 150° C. ([3]; weight equilibrium event at 25° C. omitted from the TGA method): approximately 3.2% | total weight gain from 5 to 95% RH ([4]; 5 to 95% RH): ~13% | solid form after moisture sorption/desorption analysis ([4]; listed as form C): converts to form B | weight (water) lost upon equilibration to 5% RH [4]: 1.4% | weight (water) lost upon equilibration to 5% RH ([4]; listed as form C): approximately 1.4% | XRPD result ([5]; Magnesium Chloride, 33.1 % RH @ 20° C., 28 days): remained unchanged | XRPD result ([5]; Potassium Acetate, 23.1 % RH @ 20° C., 25 days): converted from form C to form B | XRPD result ([5]; Potassium Chloride, 85.1 % RH @ 20° C., 28 days): converted from form C to form B
